Experimental data as given in patent publication US20250025459A1, “COVID-19 TREATMENT MEDICINE CHARACTERIZED BY COMBINING 3CL PROTEASE INHIBITOR AND COVID-19 TREATMENT DRUG” (priority 2021, published 2025).
Where two headings read alike, the source gives them in different places.

How the values were obtained:
SARS-CoV-2 = assay: microbe, parasite or virus in culture; type: cell-based; conditions: Severe acute respiratory syndrome coronavirus 2, 72 h; VeroE6/TMPRSS2 cells, 100 TCID50/well, 3 days; class symbols
SARS-CoV-2 3CL Protease = SARS-CoV-2 3CL Protease (Severe acute respiratory syndrome coronavirus 2 (2019-nCoV) (SARS-CoV-2), UniProt P0DTD1); assay: biochemical; type: biochemical
[1] = tested on: SARS-CoV-2 hCoV-19/Japan/TY/WK-521/2020; assay: Combination effect confirmation test, VeroE6/TMPRSS2 cells, strain WK-521; type: cell-based; conditions: for EC50 of single agent: VeroE6/TMPRSS2, 3 days
[2] = tested on: SARS-CoV-2 hCoV-19/Japan/TY11-927-P1/2021; assay: Combination effect confirmation test, VeroE6/TMPRSS2 cells, strain TY11-927-P1; type: cell-based; conditions: for EC50 of single agent: VeroE6/TMPRSS2, 3 days; for EC50: Severe acute respiratory syndrome coronavirus 2, VeroE6/TMPRSS2, 72 h, single agent
[3] = tested on: SARS-CoV-2 hCoV-19/Japan/TY7-501/2021; assay: Combination effect confirmation test, VeroE6/TMPRSS2 cells, strain TY7-501; type: cell-based
[4] = recombinant enzyme, RapidFire MS, class symbols, read-out: IC50
[5] = Severe acute respiratory syndrome coronavirus 2, 72 h, single agent, hCoV-19/Japan/TY/WK-521/2020, VeroE6/TMPRSS2, 1000 TCID50/well, 3 days
[6] = read-out: 50% SARS-CoV-2 3CL protease inhibitory concentration (IC50)
[7] = Severe acute respiratory syndrome coronavirus 2, VeroE6/TMPRSS2, 72 h, single agent, hCoV-19/Japan/TY7-501/2021, […]
[8] = single agent, hCoV-19/Japan/TY/WK-521/2020

Row | Molecule | EC50 (SARS-CoV-2) [µM] | further results
1 | Cn1cc2cc(Nc3nc(=O)n(-c4cncc5ccccc45)c(=O)n3Cc3ccc(F)c(C#N)c3)c(F)cc2n1 [Compound I-025] | < 1 | –
2 | Cn1cc2cc(Nc3nc(=O)n(-c4cncc5ccccc45)c(=O)n3Cc3ccc(F)c(C#N)c3)c(Cl)cc2n1 [Compound I-015] | < 1 | –
3 | Cc1cc2nn(C)cc2cc1Nc1nc(=O)n(-c2cncc3ccccc23)c(=O)n1Cc1cc(F)c(F)c(F)c1 [Compound I-013] | 1 to 10 | IC50 (SARS-CoV-2 3CL Protease; [4]): < 0.1 µM
4 | CN(C)C(=O)COC(=O)Cc1ccc(OC(=O)c2ccc(NC(=N)N)cc2)cc1 [Camostatmesylate, reference compound] | – | EC50 [1, 5]: 1.3 µM
5 | Cc1cc2nn(C)cc2cc1Nc1nc(=O)n(-c2cncc3ccccc23)c(=O)n1Cc1ccc(F)c(C#N)c1 [Compound I-027] | < 1 | –
6 | Cc1cncc(-n2c(=O)nc(Nc3cc4cn(C)nc4cc3Cl)n(Cc3cc(F)c(F)cc3F)c2=O)c1 [Compound I-012] | – | IC50 (SARS-CoV-2 3CL Protease; [6]): 0.0091 µM
7 | N#Cc1cc(Cn2c(Nc3ccc4nn(CC(F)F)cc4c3)nc(=O)n(-c3cncc4ccccc34)c2=O)ccc1F [Compound I-009] | < 1 | –
8 | Cc1nc2cc(Cl)c(Nc3nc(=O)n(-c4cncc5ccccc45)c(=O)n3Cc3cc(F)c(F)c(F)c3)cc2n1C [Compound I-032] | 1 to 10 | IC50 (SARS-CoV-2 3CL Protease; [4]): < 0.1 µM
9 | O=c1nc(Nc2ccc3nn(CC(F)F)cc3c2)n(Cc2cc(F)c(F)c(F)c2)c(=O)n1-c1cncc2ccccc12 [Compound I-034] | < 1 | –
10 | Cn1cc2cc(Nc3nc(=O)n(-c4cncc5ccccc45)c(=O)n3Cc3cc(F)c(F)c(F)c3)ccc2n1 [Compound I-016] | < 1 | –
11 | Sotrovimab: anti-SARS-CoV-2 monoclonal antibody | – | EC50 of single agent [2]: 1.06(μg/mL)
12 | CCC(CC)COC(=O)[C@H](C)N[P@](=O)(OC[C@H]1O[C@@](C#N)(c2ccc3c(N)ncnn23)[C@H](O)[C@@H]1O)Oc1ccccc1 [Remdesivir, reference compound] | – | EC50 ([1]; Severe acute respiratory syndrome coronavirus 2, VeroE6/TMPRSS2, 72 h, single agent, hCoV-19/Japan/TY/WK-521/2020, […]): 2.5 µM; EC50 [2]: 2 µM; EC50 [3, 7]: 2.3 µM
13 | Cc1nc2cc(Cl)c(Nc3nc(=O)n(Cc4ncn(C)n4)c(=O)n3Cc3cc(F)c(F)c(F)c3)cc2n1C [Compound I-022] | 1 to 10 | –
14 | Imdevimab: anti-SARS-CoV-2 monoclonal antibody | – | EC50 of single agent [1, 8]: 0.047 [μg/mL]
15 | Casirivimab: anti-SARS-CoV-2 monoclonal antibody | – | EC50 of single agent [1, 8]: 0.077 [μg/mL]
16 | N#Cc1cc(Cn2c(Nc3cc4cn(CCO)nc4cc3Cl)nc(=O)n(-c3cncc4ccccc34)c2=O)ccc1F [Compound I-031] | 1 to 10 | IC50 (SARS-CoV-2 3CL Protease; [4]): < 0.1 µM
17 | Cn1cnc(Cn2c(=O)nc(Nc3cc4cn(CCO)nc4cc3Cl)n(Cc3cc(F)c(F)c(F)c3)c2=O)n1 [Compound I-028] | 1 to 10 | –
18 | Cc1cncc(-n2c(=O)nc(Nc3cc4cn(C)nc4cc3Cl)n(Cc3cc(F)c(F)c(F)c3)c2=O)c1 [Compound I-003] | – | IC50 (SARS-CoV-2 3CL Protease; [6]): 0.014 µM; EC50 [1, 5]: 0.177 µM

Row | Molecule | EC50 (SARS-CoV-2) [µM] | further results
19 | Cc1cncc(-n2c(=O)nc(Nc3cc4cn(C(F)F)nc4cc3Cl)n(Cc3ccc(F)c(C#N)c3)c2=O)c1 [Compound I-026] | < 1 | –
20 | Cc1cncc(-n2c(=O)nc(Nc3ccc4nn(CC(F)F)cc4c3)n(Cc3ccc(F)c(C#N)c3)c2=O)c1 [Compound I-011] | < 1 | –
21 | Cn1cnc(Cn2c(=O)nc(Nc3cc4cn(C)nc4cc3Cl)n(Cc3cc(F)c(F)c(F)c3)c2=O)n1 [Compound I-021] | < 1 | –
22 | O=c1nc(Nc2cc3cn(CCN4CCOCC4)nc3cc2Cl)n(Cc2cc(F)c(F)c(F)c2)c(=O)n1-c1cncc2ccccc12 [Compound I-020] | 1 to 10 | –
23 | Cc1cncc(-n2c(=O)nc(Nc3cc4cn(C)nc4cc3C)n(Cc3ccc(F)c(C#N)c3)c2=O)c1 [Compound I-019] | < 1 | –
24 | Cn1cnc(Cn2c(=O)nc(Nc3cc4cn(C(F)F)nc4cc3Cl)n(Cc3cc(F)c(F)c(F)c3)c2=O)n1 [Compound I-030] | 1 to 10 | –
25 | Cc1cncc(-n2c(=O)nc(Nc3cc4cn(C)nc4cc3C)n(Cc3cc(F)c(F)c(F)c3)c2=O)c1 [Compound I-004] | 1 to 10 | –
26 | Bebtelovimab: anti-SARS-CoV-2 monoclonal antibody | – | EC50 of single agent [2]: 0.0231(μg/mL)
27 | Cn1cnc(Cn2c(=O)nc(Nc3cc4cn(CC(F)F)nc4cc3Cl)n(Cc3cc(F)c(F)c(F)c3)c2=O)n1 [Compound I-029] | < 1 | –
28 | Cc1cncc(-n2c(=O)nc(Nc3cc4cn(C)nc4cc3F)n(Cc3ccc(F)c(C#N)c3)c2=O)c1 [Compound I-018] | < 1 | –
29 | O=c1nc(NO)ccn1[C@@H]1O[C@H](CO)[C@@H](O)[C@H]1O [EIDD-1931, reference compound] | – | EC50 ([1]; read-out: EC50 of single agent): 0.69 µM; EC50 ([3]; read-out: EC50 of single agent): 1.5 µM
30 | Cc1cncc(-n2c(=O)nc(Nc3cc4cn(C)nc4cc3F)n(Cc3cc(F)c(F)c(F)c3)c2=O)c1 [Compound I-002] | < 1 | –
31 | CC(=O)NCCn1cc2cc(Nc3nc(=O)n(-c4cncc5ccccc45)c(=O)n3Cc3cc(F)c(F)c(F)c3)c(Cl)cc2n1 [Compound I-033] | 1 to 10 | –
32 | N#Cc1cc(Cn2c(Nc3cc4cn(C(F)F)nc4cc3Cl)nc(=O)n(-c3cncc4ccccc34)c2=O)ccc1F [Compound I-024] | < 1 | –
33 | Cn1cnc(Cn2c(=O)[nH]/c(=N\c3cc4cn(C)nc4cc3Cl)n(Cc3cc(F)c(F)cc3F)c2=O)n1 | – | EC50 [1, 5]: 0.37 µM; EC50 [2]: 0.41 µM; EC50 [3, 7]: 0.5 µM
34 | Cn1cc2cc(Nc3nc(=O)n(-c4cncc5ccccc45)c(=O)n3Cc3cc(F)c(F)c(F)c3)c(Cl)cc2n1 [Compound I-014] | < 1 | –
35 | CC(C)(C)[C@H](NC(=O)C(F)(F)F)C(=O)N1C[C@H]2[C@@H]([C@H]1C(=O)N[C@H](C#N)C[C@@H]1CCNC1=O)C2(C)C [PF-07321332, reference compound] | – | EC50 [1, 5]: 7.1 µM
